Paper PMC4507791 (Drug Design, Development and Therapy, 2015)
“And” between values parts separate entries of the source, which are not always exact repeats. Equal entries are not always repeated.

Tests used:
recombinant human MAO-A = molecular target: T1, recombinant human MAO-A (Homo sapiens, UniProt P21397); test: IC50 determination, inhibition of recombinant human MAO-A; type: biochemical; details: mean ± SD of triplicate determinations
T1 sequence (P21397 1-527): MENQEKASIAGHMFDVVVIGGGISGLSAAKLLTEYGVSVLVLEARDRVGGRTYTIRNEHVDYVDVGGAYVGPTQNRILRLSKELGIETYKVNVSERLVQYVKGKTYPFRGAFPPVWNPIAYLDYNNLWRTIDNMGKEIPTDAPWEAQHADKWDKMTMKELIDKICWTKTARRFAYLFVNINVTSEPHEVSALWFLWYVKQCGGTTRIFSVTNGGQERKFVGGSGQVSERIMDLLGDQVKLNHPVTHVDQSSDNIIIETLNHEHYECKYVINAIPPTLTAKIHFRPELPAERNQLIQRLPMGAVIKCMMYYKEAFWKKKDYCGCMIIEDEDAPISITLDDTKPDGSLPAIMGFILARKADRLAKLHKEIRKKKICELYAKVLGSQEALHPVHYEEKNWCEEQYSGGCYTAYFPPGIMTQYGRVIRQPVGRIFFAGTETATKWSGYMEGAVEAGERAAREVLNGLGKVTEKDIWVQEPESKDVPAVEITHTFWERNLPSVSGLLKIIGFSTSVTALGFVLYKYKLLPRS

MAO-B [1] = molecular target: T2, MAO-B (Homo sapiens, UniProt P27338); test: IC50 determination, inhibition of recombinant human MAO-B; type: biochemical; details: for SI (selectivity index, IC50(MAO-A)/IC50(MAO-B)): selectivity for the MAO-B isoform
T2 sequence (P27338 1-520): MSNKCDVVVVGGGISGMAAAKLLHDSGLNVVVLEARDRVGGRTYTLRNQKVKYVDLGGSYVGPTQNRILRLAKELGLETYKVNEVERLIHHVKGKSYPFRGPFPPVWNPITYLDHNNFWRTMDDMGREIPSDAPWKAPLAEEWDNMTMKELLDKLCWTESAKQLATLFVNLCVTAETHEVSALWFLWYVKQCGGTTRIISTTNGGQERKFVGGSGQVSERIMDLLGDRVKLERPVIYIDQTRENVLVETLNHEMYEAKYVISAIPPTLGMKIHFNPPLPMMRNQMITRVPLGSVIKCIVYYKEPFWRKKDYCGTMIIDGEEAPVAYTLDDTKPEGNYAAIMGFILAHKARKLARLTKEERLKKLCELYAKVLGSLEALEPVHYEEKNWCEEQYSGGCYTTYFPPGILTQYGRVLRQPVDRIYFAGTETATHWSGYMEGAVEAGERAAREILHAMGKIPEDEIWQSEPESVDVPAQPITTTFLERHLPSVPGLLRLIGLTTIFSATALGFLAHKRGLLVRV

MAO-B [2] = molecular target: T2, MAO-B
human MAO-B = human MAO-B (Homo sapiens, UniProt P27338); details: Lineweaver-Burk graphs linear, intersect on y axis

Compound | IC50 (recombinant human MAO-A) | IC50 (MAO-B [1]) | SI (selectivity index, IC50(MAO-A)/IC50(MAO-B)) (MAO-B [1]) | Reversibility of MAO-B inhibition by dialysis (MAO-B [2]) | Residual MAO-B catalytic activity after dialysis (% of negative control value) (MAO-B [2]; inhibitor at 4× IC50, incubated 15 minutes, dialyzed for 24 hours) | Mode of MAO-B inhibition (human MAO-B) | Fold weaker as MAO-B inhibitor than compound 2b (MAO-B [1]; relative to weakest inhibitor of the series, 2b (IC50 = 0.157 µM))
CCCCOc1ccc(C(C)=O)c(O)c1 [Compound 2n, 2-Acetyl-5-butoxyphenol] | 8650 ± 1040 nM | 103 ± 15 nM | 84 |  |  |  | 
CC(=O)c1ccc(OCc2ccc(Cl)cc2)cc1O [Compound 2g, 2-Acetyl-5-(4-chlorobenzyloxy)phenol] | 1810 ± 284 nM |  |  |  |  |  | 
CC(=O)c1ccc(OCc2cccc(C)c2)cc1O [Compound 2i, 2-Acetyl-5-(3-methylbenzyloxy)phenol] | 17700 ± 2800 nM | 54 ± 10 nM | 328 |  |  |  | 
CC(=O)c1ccc(OCc2cccc(Cl)c2)cc1O [Compound 2f, 2-Acetyl-5-(3-chlorobenzyloxy)phenol] | > 17700 nM |  |  |  |  |  | 
CC(=O)c1ccc(OCc2ccc(C(F)(F)F)cc2)cc1O [Compound 2m, 2-Acetyl-5-[4-(trifluoromethyl)benzyloxy] phenol] | 13600 ± 238 nM | 10 ± 3 nM | 1,360 |  |  |  | 
CC(=O)c1ccc(OCc2ccc(F)cc2)cc1O [Compound 2e, 2-Acetyl-5-(4-fluorobenzyloxy)phenol] |  |  |  | only partially reversed | 52% | competitive inhibitor | 
CC(=O)c1ccc(OCc2ccccc2)cc1O [Compound 2a, 2-Acetyl-5-benzyloxyphenol] | 8360 ± 442 nM |  | 1,194 |  |  |  | 
CC(=O)c1ccc(OCc2cccc(I)c2)cc1O [Compound 2h, 2-Acetyl-5-(3-iodobenzyloxy)phenol] | 26900 ± 1800 nM | 14 ± 2 nM | 1,921 |  |  |  | 
CCCCCCCOc1ccc(C(C)=O)c(O)c1 [Compound 2o, 2-Acetyl-5-heptyloxyphenol] | 60400 ± 8000 nM | 156 ± 50 nM | 387 |  |  |  | 
CCC(=O)c1ccc(OCc2ccccc2)cc1O [Compound 3b, 2-Propanoyl-5-benzyloxyphenol] | > 17700 nM and 38200 nM | 4 ± 1 nM | 9,550 |  |  |  | 
CC(=O)c1ccc(OCc2cccc(C#N)c2)cc1O [Compound 2k, 2-Acetyl-5-(3-cyanobenzyloxy)phenol] | 1640 ± 213 nM | 23 ± 0.3 nM | 71 |  |  |  | 
CC(=O)c1ccc(OCc2ccc(C#N)cc2)cc1O [Compound 2l, 2-Acetyl-5-(4-cyanobenzyloxy)phenol] | 2720 ± 352 nM | 4 ± 1 nM | 680 |  |  |  | 
CC(=O)c1ccc(OCc2ccccc2)cc1 [Compound 3a, 4′-Benzyloxyacetophenone] | 19500 ± 2470 nM | 27 ± 3 nM | 722 |  |  |  | 
CC(=O)c1ccc(O)cc1O [Compound 4, 2′,4′-dihydroxyacetophenone, reference compound] | 47700 ± 3120 nM | 39700 ± 5030 nM | 1.2 |  |  |  | 250 fold
CC(=O)c1ccc(OCCCc2ccccc2)cc1O [Compound 2c, 2-Acetyl-5-(3-phenylpropoxy)phenol] | 10700 ± 2300 nM | 60 ± 13 nM | 178 |  |  |  | 
CC(=O)c1ccc(OCCc2ccccc2)cc1O [Compound 2b, 2-Acetyl-5-(2-phenylethoxy)phenol] | 4700 ± 716 nM | 157 ± 41 nM | 30 |  |  |  | 
CC(=O)c1ccc(OCc2cccc(F)c2)cc1O [Compound 2d, 2-Acetyl-5-(3-fluorobenzyloxy)phenol] | > 17700 nM |  |  |  |  |  | 
CC(=O)c1ccc(OCc2ccc(C)cc2)cc1O [Compound 2j, 2-Acetyl-5-(4-methylbenzyloxy)phenol] | 25200 ± 939 nM | 26 ± 2 nM | 969 |  |  |  | 
